Results reported in patent US20250109127A1, “METHODS OF USE OF PHENOXYPROPYLAMINE COMPOUNDS TO TREAT DEPRESSION” (Minerva Neurosciences, Inc., priority 2013, published 2025).
Where “and” joins values, the source holds several entries; their conditions need not be identical. Equal values may be shown once.

Test system: norepinephrin release in the rat prefrontal cortex
Experiment: Microdialysis: norepinephrine release in prefrontal cortex after I.P. administration
Assay type: in vivo
Details: for NOREPINEPHRIN in dialysate, MEAN / NOREPINEPHRIN in dialysate, individual animals: Citalopram 10 mg/kg I.P.
Experimental: The aim of the study was to evaluate, using microdialysis, the effects of an intraperitoneal (I.P.) administration in rats of three different doses of SON-117 on dopamine and its metabolites, serotonin and its metabolite (5-HIAA), and norepinephrine levels in prefrontal cortex.
Thirty-two adult male Wistar rats were used for the whole study (4 groups of eight animals planned for the study, Table 1).
Surgery was performed on rats weighing about 300 g at the beginning of the experiments. Rats were anaesthetized with Ketamine (50 mg/kg) & Xylazine (15 mg/kg) by intramuscular administration. The animals were placed in a stereotaxic apparatus in the flat-skull position at a constant setting of −3.3 mm between ear bars and the incisor bar. The animals were treated with a local anesthesic (xylocaine 1%, Astra Zeneca) and an analgesic (Temgesic, from Schering Plough, 0.05 mg/kg, s.c.). A rostrocaudal midline incision was made with a lancet to expose the dorsal skull surface. The “stereotaxic zero” was defined by the Bregma in accordance with Paxinos and Watson's atlas (1986). A hole was drilled in the skull with a drill and the meninges were pierced with a sterile needle to implant a CMA12 guide cannula which later received the dialysis probe.
Coordinates used for implanting guide cannula in prefrontal cortex from Bregma were anteroposterior 3.7 mm, mediolateral 0.8 mm, and dorsoventral −2 mm (top of the probe was at −5 mm). The guide cannula was fixed to the skull with two stainless steel screws (1.88 mm outside diameter) anchored. An application of dental cement was added. A plastic collar allowed each animal to be tethered to a Swivel assembly of the CMA 120 awake animal system. Following surgery, rats were kept in individual cages and allowed to recover for a minimum of 3-5 days before the experimentation. The rats were handled and put in plastic bowl for 10 min at least every day to habituate the animals to their new environment for the dialysis. An I.P. administration with saline was also performed every day.
Dialysis probes (CMA12/3 mm, membrane, 20 kD cut-off, Carnegie Medicine, Stockholm, Sweden), were carefully washed before inserting into the guide cannula. The wash was performed with the artificial cerebrospinal fluid (aCSF) medium (NaCl 147 mM, KCl 2.7 mM, CaCl2 1.2 mM, MgCl2 0.85 mM) at room temperature. The dialysis system was then equilibrated at 20° C. at a perfusion rate of 1 μl/min with a Carnegie pump (CMA100). All catheters (FEP tubing, internal volume of 1.2 μl/10 cm, and tubing adaptors) used for microdialysis were treated in the same conditions.
The probes duly prepared were inserted into the guide cannula and the CMA120 Swivel assembly secured to the animal using a plastic collar. Flow through the dialysis probe with aCSF was maintained at a rate of 1 μl/min during the whole experimentation. The first four fractions (corresponding to 2 hours) were discarded to avoid the effects of parenchymal disturbance and to ensure that an approximate steady-state level was reached. Fractions were then collected over a period of 8.5 h during which time the animals remained quiet. The dialysates were automatically collected with an autosampler (microfraction collector CMA 140, Carnegie Medicin) and stored at −80° C. until analysis. […] Perfusion was then maintained for 7 hours with aCSF. The dialysates (30 μl) were collected into 300 μl vials, transferred into dry ice and then kept frozen (−80° C.) until analysis. Frozen samples were shipped to a partner for analysis. At the end of the microdialysis study, a PBS with colored ink was perfused through the probe in order to visualize the dialyzed area.
Catecholamine assay: Concentrations of dopamine, DOPAC, HVA, 5-HIAA, 5-HT, and norepinephrin were determined for each sample by HPLC coupled with electrochemical detection. […]

CN(C)CCCC1(c2ccc(F)cc2)OCc2cc(C#N)ccc21 (stereo not shown) [Citalopram, citalopram, reference compound]
NOREPINEPHRIN in dialysate, MEAN (T0-T30 min): 82.58 % of respective basal | NOREPINEPHRIN in dialysate, MEAN (T30-T1 h): 78.71 % of respective basal | NOREPINEPHRIN in dialysate, individual animals (T30-T1 h): 63.38 % of respective basal and 110.18 % of respective basal and 80.74 % of respective basal and 67.88 % of respective basal and 82.89 % of respective basal and 87.03 % of respective basal and 121.77 % of respective basal and 15.77 % of respective basal | NOREPINEPHRIN in dialysate, MEAN (T1 h 30-T2 h): 79.06 % of respective basal | NOREPINEPHRIN in dialysate, individual animals (T1 h 30-T2 h): 61.03 % of respective basal and 124.09 % of respective basal and 72.92 % of respective basal and 60.40 % of respective basal and 82.59 % of respective basal and 82.64 % of respective basal and 134.98 % of respective basal and 13.8 % of respective basal | NOREPINEPHRIN in dialysate, MEAN (T1 h-T1 h 30): 79.69 % of respective basal | NOREPINEPHRIN in dialysate, individual animals (T1 h-T1 h 30): 76.17 % of respective basal and 109.19 % of respective basal and 82.90 % of respective basal and 61.59 % of respective basal and 83.93 % of respective basal and 87.19 % of respective basal and 123.99 % of respective basal and 12.53 % of respective basal | NOREPINEPHRIN in dialysate, MEAN (T2 h 30-T3 h): 71.56 % of respective basal | NOREPINEPHRIN in dialysate, individual animals (T2 h 30-T3 h): 59.14 % of respective basal and 93.64 % of respective basal and 64.43 % of respective basal and 55.24 % of respective basal and 91.72 % of respective basal and 74.05 % of respective basal and 121.10 % of respective basal and 13.15 % of respective basal | NOREPINEPHRIN in dialysate, MEAN (T2 h-T2 h 30): 76.38 % of respective basal | NOREPINEPHRIN in dialysate, individual animals (T2 h-T2 h 30): 73.97 % of respective basal and 105.30 % of respective basal and 76.17 % of respective basal and 58.36 % of respective basal and 86.59 % of respective basal and 74.01 % of respective basal and 122.28 % of respective basal and 14.33 % of respective basal | NOREPINEPHRIN in dialysate, MEAN (T3 h 30-T4 h): 75.03 % of respective basal | NOREPINEPHRIN in dialysate, individual animals (T3 h 30-T4 h): 60.36 % of respective basal and 105.62 % of respective basal and 79.83 % of respective basal and 62.35 % of respective basal and 87.18 % of respective basal and 69.08 % of respective basal and 122.62 % of respective basal and 13.22 % of respective basal | NOREPINEPHRIN in dialysate, MEAN (T3 h-T3 h 30): 71.85 % of respective basal | NOREPINEPHRIN in dialysate, individual animals (T3 h-T3 h 30): 59.65 % of respective basal and 96.31 % of respective basal and 77.47 % of respective basal and 56.34 % of respective basal and 86.44 % of respective basal and 66.43 % of respective basal and 119.71 % of respective basal and 12.42 % of respective basal | NOREPINEPHRIN in dialysate, MEAN (T4 h 30-T5 h): 79.44 % of respective basal | NOREPINEPHRIN in dialysate, individual animals (T4 h 30-T5 h): 76.82 % of respective basal and 116.23 % of respective basal and 73.73 % of respective basal and 66.68 % of respective basal and 84.54 % of respective basal and 70.81 % of respective basal and 127.26 % of respective basal and 19.47 % of respective basal | NOREPINEPHRIN in dialysate, MEAN (T4 h-T4 h 30): 79.54 % of respective basal | NOREPINEPHRIN in dialysate, individual animals (T4 h-T4 h 30): 77.6 % of respective basal and 102.09 % of respective basal and 77.48 % of respective basal and 63.90 % of respective basal and 92.86 % of respective basal and 82.33 % of respective basal and 128.7 % of respective basal and 11.39 % of respective basal | NOREPINEPHRIN in dialysate, MEAN (T5 h 30-T6 h): 81.93 % of respective basal | NOREPINEPHRIN in dialysate, individual animals (T5 h 30-T6 h): 48.16 % of respective basal and 103.46 % of respective basal and 105.10 % of respective basal and 86.55 % of respective basal and 85.91 % of respective basal and 79.07 % of respective basal and 122.12 % of respective basal and 25.1 % of respective basal | NOREPINEPHRIN in dialysate, MEAN (T5 h-T5 h 30): 77.65 % of respective basal | NOREPINEPHRIN in dialysate, individual animals (T5 h-T5 h 30): 88.27 % of respective basal and 76.54 % of respective basal and 75.84 % of respective basal and 77.15 % of respective basal and 75.13 % of respective basal and 134.83 % of respective basal and 15.76 % of respective basal | NOREPINEPHRIN in dialysate, MEAN (T6 h 30-T7 h): 79.84 % of respective basal | NOREPINEPHRIN in dialysate, individual animals (T6 h 30-T7 h): 52.47 % of respective basal and 107.42 % of respective basal and 80.22 % of respective basal and 89.35 % of respective basal and 83.18 % of respective basal | NOREPINEPHRIN in dialysate, MEAN (T6 h-T6 h 30): 78.38 % of respective basal | NOREPINEPHRIN in dialysate, individual animals (T6 h-T6 h 30): 51.36 % of respective basal and 106.33 % of respective basal and 79.91 % of respective basal and 87.03 % of respective basal and 82.07 % of respective basal and 79.77 % of respective basal and 119.62 % of respective basal and 20.91 % of respective basal | NOREPINEPHRIN in dialysate, MEAN (T-30 min-T0 (pre-dose)): 95.22 % of respective basal | NOREPINEPHRIN in dialysate, MEAN (T-1 h 30-T-1 h (pre-dose)): 92.87 % of respective basal | NOREPINEPHRIN in dialysate, MEAN (T-1 h-T-30 min (pre-dose)): 109.53 % of respective basal | NE concentration in prefrontal cortex, significant and stable slight decrease (citalopram 10 mg/kg I.P., from 0.5 h to 7 h after administration): 72%
